Reference: ChEMBL document CHEMBL1201862, “PubChem BioAssay data set” (2004)
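Values below derive from 48-hour exposures of cells grown in 96-well plates, with endpoints linearly interpolated between the two concentrations bracketing the appropriate inhibition level. GI50 is the concentration that inhibits growth by half.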 Active and inactive are the calls of the source. No stated cut-off is given here; in the data, active = GI50 up to about 1.1 µM and inactive = higher.

Tests used:
Experiment in all cases: NCI tumour cell line growth inhibition, 48 h
[1] = tested on: HCT-116
[2] = tested on: LOX IMVI
[3] = tested on: ACHN
[4] = tested on: TK-10
[5] = tested on: 786-0
[6] = tested on: Malme-3M
[7] = tested on: SK-OV-3
[8] = tested on: NCI-H226
[9] = tested on: MDA-MB-231
[10] = tested on: OVCAR-5
[11] = tested on: M14
[12] = tested on: DU-145
[13] = tested on: OVCAR-4
[14] = tested on: HOP-62
[15] = tested on: RPMI-8226
[16] = tested on: K562
[17] = tested on: HL-60
[18] = tested on: SR
[19] = tested on: MCF7
[20] = tested on: HCC 2998

| Structure (SMILES) | GI50 [1] | GI50 [2] | GI50 [3] | GI50 [4] | GI50 [5] | GI50 [6] | GI50 [7] | GI50 [8] | GI50 [9] | GI50 [10] | GI50 [11] | GI50 [12] | GI50 [13] | GI50 [14] | GI50 [15] | GI50 [16] | GI50 [17] | GI50 [18] | GI50 [19] | GI50 [20] |
| --- | --- | --- | --- | --- | --- | --- | --- | --- | --- | --- | --- | --- | --- | --- | --- | --- | --- | --- | --- | --- |
| CC(C)[Si](OC1=C(C(=O)N(C)c2ccccc2Cl)CCCCC1)(C(C)C)C(C)C | > 100 µM (inactive) | > 100 µM (inactive) | > 100 µM (inactive) | > 100 µM (inactive) | > 100 µM (inactive) | > 100 µM (inactive) | > 100 µM (inactive) | > 100 µM (inactive) | > 100 µM (inactive) | > 100 µM (inactive) | > 100 µM (inactive) | > 100 µM (inactive) | > 100 µM (inactive) | > 100 µM (inactive) | > 100 µM (inactive) |  |  |  |  |  |
| O=C(O)/C(Cc1ccnc2ccccc12)=N\O | > 100 µM (inactive) | > 100 µM (inactive) | > 100 µM (inactive) | > 100 µM (inactive) | > 100 µM (inactive) | > 100 µM (inactive) | > 100 µM (inactive) | > 100 µM (inactive) | > 100 µM (inactive) | > 100 µM (inactive) | > 100 µM (inactive) | > 100 µM (inactive) | > 100 µM (inactive) | > 100 µM (inactive) | > 100 µM (inactive) | > 100 µM (inactive) | > 100 µM (inactive) | > 100 µM (inactive) | > 100 µM (inactive) |  |
| COC(=S)OC1CC(n2cnc3c(N)ncnc32)OC1CO[Si](C)(C)C(C)(C)C (configuration not stated) | 16 µM (inactive) | 39.7 µM (inactive) |  | 33.3 µM (inactive) |  | 31.5 µM (inactive) | 24 µM (inactive) | 21.8 µM (inactive) | 18.8 µM (inactive) | 20.6 µM (inactive) | 16.4 µM (inactive) | 16.8 µM (inactive) | 16.6 µM (inactive) | 16 µM (inactive) | 19 µM (inactive) | 2.75 µM (inactive) | > 100 µM (inactive) | 17.5 µM (inactive) | 19.1 µM (inactive) |  |
| COc1ccc(OC)c(SC(CC(=O)c2ccccc2)c2ccccc2)c1 (configuration not stated) | 3.66 µM (inactive) |  | 19.6 µM (inactive) | 17.2 µM (inactive) | 15.6 µM (inactive) | 19.8 µM (inactive) | 20 µM (inactive) | 14.3 µM (inactive) | 7.45 µM (inactive) | 18.4 µM (inactive) | 16.7 µM (inactive) | 7.85 µM (inactive) | 61.4 µM (inactive) | 20.9 µM (inactive) |  | 4.91 µM (inactive) | > 100 µM (inactive) | 7.6 µM (inactive) | 3.14 µM (inactive) | 17.5 µM (inactive) |
| CC(C)(C)[Si](C)(C)OCC1OC(n2cnc3c(N)ncnc32)CC1OS(C)(=O)=O (configuration not stated) | 72.1 µM (inactive) | > 100 µM (inactive) |  | 42 µM (inactive) |  | > 100 µM (inactive) | > 100 µM (inactive) | > 100 µM (inactive) | 22.1 µM (inactive) | 89.1 µM (inactive) | 21.7 µM (inactive) | > 100 µM (inactive) | > 100 µM (inactive) | 45.8 µM (inactive) | > 100 µM (inactive) | > 100 µM (inactive) | 64.9 µM (inactive) | > 100 µM (inactive) | > 100 µM (inactive) |  |
| CC#CS(=O)(=O)c1ccccc1 | 4.36 µM (inactive) | 5.45 µM (inactive) | 3.57 µM (inactive) | 4.92 µM (inactive) | 3.43 µM (inactive) | 2.88 µM (inactive) | 17.3 µM (inactive) | 9.91 µM (inactive) | 10.6 µM (inactive) | 5.58 µM (inactive) | 5.87 µM (inactive) | 2.82 µM (inactive) | 3.19 µM (inactive) | 21.7 µM (inactive) |  |  | 1.8 µM (inactive) |  | 6.87 µM (inactive) | 3.96 µM (inactive) |
| COc1nc2cccc(C(O)c3ccccc3)c2nc1-c1ccccc1 (configuration not stated) | 3.97 µM (inactive) | 6.24 µM (inactive) | 5.83 µM (inactive) | 22.3 µM (inactive) |  | 17 µM (inactive) |  | 3.8 µM (inactive) | 8.41 µM (inactive) | 11 µM (inactive) | 4.39 µM (inactive) | 5.93 µM (inactive) | 10.1 µM (inactive) | 3.78 µM (inactive) | 2.94 µM (inactive) | 3.81 µM (inactive) | 3.18 µM (inactive) | 1.75 µM (inactive) | 4.47 µM (inactive) |  |
| CC1=C(C)[C@@]2(C)O[C@@]2(C)O[C@@]2(C)O[C@@]12C | > 100 µM (inactive) | > 100 µM (inactive) | > 100 µM (inactive) | > 100 µM (inactive) |  | > 100 µM (inactive) | > 100 µM (inactive) | > 100 µM (inactive) | > 100 µM (inactive) | > 100 µM (inactive) | > 100 µM (inactive) | > 100 µM (inactive) | > 100 µM (inactive) | > 100 µM (inactive) |  | > 100 µM (inactive) |  | > 100 µM (inactive) | > 100 µM (inactive) |  |
| Cc1ccc2oc3c(ccc(=O)n3C)c(=O)c2c1 | > 100 µM (inactive) | > 100 µM (inactive) | > 100 µM (inactive) | > 100 µM (inactive) |  | > 100 µM (inactive) | > 100 µM (inactive) | > 100 µM (inactive) | > 100 µM (inactive) | > 100 µM (inactive) | > 100 µM (inactive) | > 100 µM (inactive) | > 100 µM (inactive) | > 100 µM (inactive) |  | > 100 µM (inactive) | > 100 µM (inactive) | > 100 µM (inactive) | > 100 µM (inactive) | > 100 µM (inactive) |
| C1CC2=C(C1)[Se]C(=C1Sc3nsnc3S1)[Se]2 | > 100 µM (inactive) | > 100 µM (inactive) | > 100 µM (inactive) | > 100 µM (inactive) | > 100 µM (inactive) | 71.3 µM (inactive) | > 100 µM (inactive) | > 100 µM (inactive) | > 100 µM (inactive) | > 100 µM (inactive) | > 100 µM (inactive) | > 100 µM (inactive) | > 100 µM (inactive) | > 100 µM (inactive) | > 100 µM (inactive) |  |  |  | > 100 µM (inactive) | > 100 µM (inactive) |
| Cc1cc(S(=O)(=O)Nc2nc(Nc3ccccc3)n[nH]2)c(SSc2cc(Cl)c(C)cc2S(=O)(=O)Nc2nc(Nc3ccccc3)n[nH]2)cc1Cl | > 100 µM (inactive) | > 100 µM (inactive) | > 100 µM (inactive) | 90.8 µM (inactive) |  | 46.8 µM (inactive) | > 100 µM (inactive) |  | 32.2 µM (inactive) | > 100 µM (inactive) | > 100 µM (inactive) | > 100 µM (inactive) | > 100 µM (inactive) | > 100 µM (inactive) | > 100 µM (inactive) | 32.6 µM (inactive) | 25.1 µM (inactive) | 40.2 µM (inactive) | > 10 µM (inactive) |  |
| C=CCC(O[Si](C)(C)C(C)(C)C)c1cc(O[Si](C)(C)C(C)(C)C)ccc1OC (configuration not stated) | > 80.7 µM (inactive) | > 94.2 µM (inactive) |  |  |  | > 100 µM (inactive) | > 62.4 µM (inactive) | > 53.6 µM (inactive) |  | > 100 µM (inactive) |  |  | > 67.3 µM (inactive) | > 100 µM (inactive) | > 100 µM (inactive) | > 100 µM (inactive) | > 100 µM (inactive) |  | 51.1 µM (inactive) | > 100 µM (inactive) |
| COC(=O)[C@@H]1C=C[C@H](NC(C)=O)C1 | > 100 µM (inactive) | > 100 µM (inactive) |  | > 100 µM (inactive) |  | > 100 µM (inactive) | > 100 µM (inactive) | > 100 µM (inactive) | > 100 µM (inactive) | > 100 µM (inactive) | > 100 µM (inactive) | > 100 µM (inactive) | > 100 µM (inactive) | > 100 µM (inactive) | > 100 µM (inactive) | > 100 µM (inactive) |  | > 100 µM (inactive) | > 100 µM (inactive) | > 100 µM (inactive) |
| O=c1cc(-c2cc(O)c(O)c(-c3c(O)cc4oc(-c5ccc(O)c(O)c5)cc(=O)c4c3O)c2)oc2cc(O)cc(O)c12 | 17.5 µM (inactive) | > 25 µM (inactive) |  | > 25 µM (inactive) |  | > 25 µM (inactive) | > 25 µM (inactive) | > 25 µM (inactive) | > 25 µM (inactive) | > 25 µM (inactive) | > 25 µM (inactive) | > 25 µM (inactive) | > 25 µM (inactive) | > 25 µM (inactive) |  | > 25 µM (inactive) | > 25 µM (inactive) | > 25 µM (inactive) | > 25 µM (inactive) | > 25 µM (inactive) |
| CCCCn1c2c(n(CCCC)c1=S)-c1c(n(CCCC)c(=S)n1CCCC)S[Se][Se]S2 | 4.27 µM (inactive) | 6.05 µM (inactive) | 2.67 µM (inactive) | 4.42 µM (inactive) | 4.62 µM (inactive) | 0.625 µM (active) | 22 µM (inactive) | 14.6 µM (inactive) | 2.33 µM (inactive) | 2.17 µM (inactive) | 8.59 µM (inactive) | 16.9 µM (inactive) | 0.815 µM (active) | 8.83 µM (inactive) | 2.49 µM (inactive) | 1.63 µM (inactive) |  | 5.19 µM (inactive) | 6.64 µM (inactive) | 23.6 µM (inactive) |
| COc1cc(/C=C2\N=C(c3ccccc3)N(c3ccc(C(=O)c4ccccc4)cc3N3C(=O)/C(=C/c4cc(OC)c(OC)c(OC)c4)N=C3c3ccccc3)C2=O)cc(OC)c1OC | 10.6 µM (inactive) | 14.3 µM (inactive) | 22.6 µM (inactive) | 16.8 µM (inactive) | 16.8 µM (inactive) | 13.8 µM (inactive) | 13.3 µM (inactive) |  | 16.9 µM (inactive) | 30.8 µM (inactive) | 12.1 µM (inactive) | 14.5 µM (inactive) | 21.8 µM (inactive) | 20.7 µM (inactive) | 9.73 µM (inactive) | 4.86 µM (inactive) | 4.05 µM (inactive) |  | 12.6 µM (inactive) | 2.94 µM (inactive) |
